Assay results published in publication PMC8145938, “Triphenilphosphonium Analogs of Chloramphenicol as Dual-Acting Antimicrobial and Antiproliferating Agents” (Antibiotics, 2021).
Converted amounts (≈) assume the structure as drawn. Like-named read-outs stand apart in the source and are kept apart here.

Legend:
[1] = test system: Rabbit Reticulocyte Lysate; test: inhibition of eukaryotic in vitro translation (firefly luciferase); format: biochemical; conditions: 30 µM compound
Procedure: The next step was to test the new CAM-Cn-TPP compounds for their ability to inhibit the synthesis of the firefly luciferase reporter in vitro in a cell-free transcription-translation system based on an E. coli S30 extract.
The inhibition of eukaryotic translation was measured in Rabbit Reticulocyte Lysate (Promega) according to the manufacturer’s protocol. The reactions were programmed with 100 ng of Fluc mRNA and were carried out in 5 μL aliquots at 37 °C for 30 min. The activity of the in vitro synthesized luciferase was assessed using 5 μL of the substrate from the Steady-Glo Luciferase Assay System (Promega).

[2] = test system: B. subtilis cells; test: membrane potential by DiS-C3-(5) fluorescence; format: cell-based, Bacillus subtilis
From the text: Thus, we further examined the effect of CAM-Cn-TPP on the bacterial membrane potential of B. subtilis. In particular, the membrane potential of B. subtilis can be estimated from the fluorescence of the potential-sensitive dye, DiS-C3-(5), by measuring the changing fluorescence. The potential-dependent accumulation of the dye inside the bacterial cell causes quenching and leads to a decrease in fluorescence. Under the influence of substances that reduce the membrane potential, the dye is released and the fluorescence increases. […] Therefore, the action of CAM-Cn-TPP may have a double effect on bacterial cells and be based on the depolarization of the bacterial membrane by analogy with the mechanism of action of Cn-TPP [17].
The membrane potential of B. subtilis was estimated by measuring the fluorescence of the potential-dependent probe, DiS-C3-(5). B. subtilis from the overnight culture were seeded into a fresh LB medium, followed by growth for […], until reaching the optical density of 0.8 at 600 nm. Then, the bacteria were diluted 20-fold in a buffer containing 100 mM of KCl and 10 mM of Tris, pH 7.4. The fluorescence was measured at 670 nm (excitation at 630 nm) using a Fluorat-02-Panorama fluorimeter.

[3] = test system: Staphylococcus aureus; test: MIC determination, broth microdilution; format: cell-based
From the text: (§1) Standard laboratory strains of Bacillus subtilis subs. subtilis Cohn 1872, stains BR151, and 168, Staphylococcus aureus subsp. aureus Rosenbach 1884 strains JCM 2151 and entry MC#144 (from the Microorganisms Collection of the Moscow State University), Listeria monocytogenes Pirie 1940, Mycobacterium smegmatis Lehmann and Neumann 1899 (MC#377), and Escherichia coli Castellani and Chalmers 1919, strain JW5503 (with the deletion of tolC gene), which are resistant to the chloramphenicol strains, J53rif, C600rif/pIB55-1, C600rif/pIP162-1, and C600recA naI, were used.
(§2) S. aureus was grown in Bacto Tryptic Soy Broth, L. monocytogenes in Brain Heart Infusion Broth, and E. coli in LB. Bacterial cells were grown at 30 °C or 37 °C in the appropriate medium at a 140 rpm shaking frequency.
(§3) The MICs for CAM-Cn-TPP and Cn-TPP were determined by Mueller-Hinton broth microdilution, as recommended by CLSI in the Methods for Dilution Antimicrobial Susceptibility Tests for Bacteria that Grow Aerobically, Approved Standard, 9th ed., CLSI document M07-A9, using in-house-prepared panels. The compounds were diluted in a 96-well microtiter plate to final concentrations ranging from 0.5 to 360 μM in a 250-µL aliquot of the bacterial suspension, followed by incubation at 37 °C or 30 °C for 18 h. […] The bacterial growth was observed visually alongside OD measurements. The experiments were carried out in triplicate.

[4] = test system: Listeria monocytogenes; test: MIC determination, broth microdilution; format: cell-based
From the text: as §1, §2, §3

[5] = test system: Bacillus subtilis; test: MIC determination, broth microdilution; format: cell-based
From the text: as §1, §3

[6] = test system: Mycobacterium smegmatis; test: MIC determination, broth microdilution; format: cell-based; conditions: Mycolicibacterium smegmatis
From the text: as §1, §3

[7] = test system: E. coli ∆tolC; test: MIC determination, broth microdilution; format: cell-based; conditions: Escherichia coli
Procedure: E. coli ∆tolC CHL-resistant strain harboring plasmid encoding for chloramphenicol acetyltransferase (cat) (pCA24N-LacZ) and the control E. coli ∆tolC strain was used to evaluate the inhibitory effect of the compounds. CHL-resistant strains of B. subtilis pHT01-cat and B. subtilis pHT01-cfr were prepared by means of a transformation of a B. subtilis 168 strain with plasmids harboring the cat and cfr genes (chloramphenicol-florfenicol resistance) gene. The cfr gene encodes for the methyltransferase, which catalyzes the methylation of […] in the 23S rRNA and causes resistance to a variety of ribosome-targeting antibiotics that bind in the A site of the bacterial ribosome.
A standard laboratory strain of E. coli JW5503, with the deletion of the tolC gene, referred to here as the ∆tolC strain, was used to obtain the ∆tolC pCA24N-LacZ strain by means of transformation with the plasmid pCA24N-LacZ-harboring chloramphenicol acetyltransferase (cat) gene.
as §3

[8] = Table 1, double-dilution method, read-out: MIC

Row | Structure (SMILES) | effect on eukaryotic in vitro translation [1] | effect on membrane potential ([2]; 10 µM) | effect on membrane potential ([2]; submicromolar concentrations) | MIC [3] | MIC [4] | MIC [5] | MIC [6] | MIC [7] | MIC [3, 8] | MIC [4, 8] | MIC [5, 8] | MIC [6, 8]
1 | O=C(CCCCCCCCCC[P+](c1ccccc1)(c1ccccc1)c1ccccc1)NCCCC(=O)N[C@H](CO)[C@H](O)c1ccc([N+](=O)[O-])cc1 [CAM-C14-TPP, N-[(1R,2R)-1,3-dihydroxy-1-(4-nitrophenyl)propan-2-yl]-4-(triphenyl)phosphoniumundecanamidobutamide bromide] | had no effect on eukaryotic in vitro translation | caused a rapid drop in the membrane potential to the level observed with the channel-forming antibiotic gramicidin A | caused a decrease in the membrane potential of B. subtilis on a minute time scale | 12 µM | 17 µM | 12 µM | 8 µM | 12.5 µM | – | – | – | –
2 | O=C(N[C@H](CO)[C@H](O)c1ccc([N+](=O)[O-])cc1)C(Cl)Cl [CHL, chloramphenicol] | – | – | – | – | – | – | – | 2.8 µM (≈ 0.905 µg/mL) | 60 µM (≈ 19.4 µg/mL) | 25 µM (≈ 8.08 µg/mL) | 12 µM (≈ 3.88 µg/mL) | 6 µM (≈ 1.94 µg/mL)
3 | O=C(CCCCCCCCCC[P+](c1ccccc1)(c1ccccc1)c1ccccc1)N[C@H](CO)[C@H](O)c1ccc([N+](=O)[O-])cc1 [CAM-C10-TPP, (N-{[(1R,2R)-1,3-dihydroxy-1-(4-nitrophenyl)propan-2-yl]amino}-11-oxoundecyl)(triphenyl)phosphonium bromide] | had no effect on eukaryotic in vitro translation | caused a rapid drop in the membrane potential to the level observed with the channel-forming antibiotic gramicidin A | caused a decrease in the membrane potential of B. subtilis on a minute time scale | 5 µM | 6 µM | 2 µM | 2 µM | 3 µM | – | – | – | –
